From patent US20230085307A1, “PYRIDAZINONE COMPOUND AND HERBICIDE” (NISSAN CHEMICAL CORPORATION, priority 2019, published 2023)

Columns and labels:
barnyard grass [1] = assay: Test Example 5: herbicidal effect by foliage application, plastic box (Table 20, symbol H); assay type: in vivo, barnyard grass (Echinochloa crus-galli); settings: foliage application, 320 g/ha, three weeks after application
Method in brief: (§1)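 Plants sown in sterilized diluvial soil and grown 14 days in a greenhouse at 25° C to 30° C, then sprayed on the foliage with the compound's emulsion diluted in water to a predetermined herbicide amount. Injury to weeds and crops scored three weeks after application on a visual rating scale.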

barnyard grass [2] = assay: Test Example 4: herbicidal effect by soil treatment (Table 19, symbol H); assay type: in vivo, barnyard grass (Echinochloa crus-galli); settings: amount of applied herbicide 320 g/ha
Method in brief: (§2)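 Three weeks of greenhouse growth at 25° C. to 30° C. followed a uniform surface spray of water-diluted emulsion at a predetermined herbicide amount. Seeds had been sown beforehand under about 1.5 cm of sterilized diluvial soil. Grading followed criteria set out in an earlier test.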

persian speedwell [3] = assay: Test Example 4: herbicidal effect by soil treatment (Table 19, symbol R); assay type: in vivo, Persian speedwell (Veronica persica); settings: amount of applied herbicide 320 g/ha
Method in brief: as §2

false cleavers [4] = assay: Test Example 4: herbicidal effect by soil treatment (Table 19, symbol Q); assay type: in vivo, false cleavers (Galium spurium); settings: amount of applied herbicide 320 g/ha
Method in brief: as §2

chickweed [5] = assay: Test Example 4: herbicidal effect by soil treatment (Table 19, symbol P); assay type: in vivo, common chickweed (Stellaria media); settings: amount of applied herbicide 320 g/ha
Method in brief: as §2

redroot pigweed [6] = assay: Test Example 5: herbicidal effect by foliage application, plastic box (Table 20, symbol N); assay type: in vivo, redroot pigweed (Amaranthus retroflexus); settings: foliage application, 320 g/ha, three weeks after application
Method in brief: as §1

southern crabgrass [7] = assay: Test Example 5: herbicidal effect by foliage application, plastic box (Table 20, symbol F); assay type: in vivo, southern crabgrass (Digitaria ciliaris); settings: foliage application, 320 g/ha, three weeks after application
Method in brief: as §1

wild oat [8] = assay: Test Example 5: herbicidal effect by foliage application, plastic box (Table 20, symbol I); assay type: in vivo, wild oat (Avena fatua); settings: foliage application, 320 g/ha, three weeks after application
Method in brief: as §1

lambsquarters [9] = assay: Test Example 5: herbicidal effect by foliage application, plastic box (Table 20, symbol O); assay type: in vivo, lambsquarters (Chenopodium album); settings: foliage application, 320 g/ha, three weeks after application
Method in brief: as §1

blackgrass [10] = assay: Test Example 4: herbicidal effect by soil treatment (Table 19, symbol J); assay type: in vivo, blackgrass (Alopecurus myosuroides); settings: amount of applied herbicide 320 g/ha
Method in brief: as §2

windgrass [11] = assay: Test Example 4: herbicidal effect by soil treatment (Table 19, symbol L); assay type: in vivo, windgrass (Apera spica-venti); settings: amount of applied herbicide 320 g/ha
Method in brief: as §2

persian speedwell [12] = assay: Test Example 5: herbicidal effect by foliage application, plastic box (Table 20, symbol R); assay type: in vivo, Persian speedwell (Veronica persica); settings: foliage application, 320 g/ha, three weeks after application
Method in brief: as §1

green foxtail [13] = assay: Test Example 5: herbicidal effect by foliage application, plastic box (Table 20, symbol G); assay type: in vivo, green foxtail (Setaria viridis); settings: foliage application, 320 g/ha, three weeks after application
Method in brief: as §1

velvetleaf [14] = assay: Test Example 4: herbicidal effect by soil treatment (Table 19, symbol M); assay type: in vivo, velvetleaf (Abutilon theophrasti); settings: amount of applied herbicide 320 g/ha
Method in brief: as §2

Italian ryegrass [15] = assay: Test Example 4: herbicidal effect by soil treatment (Table 19, symbol K); assay type: in vivo, Italian ryegrass (Lolium multiflorum); settings: amount of applied herbicide 320 g/ha
Method in brief: as §2

chickweed [16] = assay: Test Example 5: herbicidal effect by foliage application, plastic box (Table 20, symbol P); assay type: in vivo, common chickweed (Stellaria media); settings: foliage application, 320 g/ha, three weeks after application
Method in brief: as §1

rice flat sedge = assay: Test Example 3: herbicidal effect by foliage application, Wagner pot (Table 18, symbol E); assay type: in vivo, rice flat sedge (Cyperus iria); settings: 320 g/ha
Method in brief: (§3)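 Plants were sown in alluvial soil held under 0.1–0.5 cm standing water and grown 14 days in a greenhouse at 25–30 °C. An emulsifiable formulation, water-diluted to the set dose, was then sprayed onto the foliage, and effects were scored three weeks later using previously defined criteria.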

windgrass [17] = assay: Test Example 5: herbicidal effect by foliage application, plastic box (Table 20, symbol L); assay type: in vivo, windgrass (Apera spica-venti); settings: foliage application, 320 g/ha, three weeks after application
Method in brief: as §1

Chinese sprangletop = assay: Test Example 3: herbicidal effect by foliage application, Wagner pot (Table 18, symbol D); assay type: in vivo, chinese sprangletop (Leptochloa chinensis); settings: 320 g/ha
Method in brief: as §3

Italian ryegrass [18] = assay: Test Example 5: herbicidal effect by foliage application, plastic box (Table 20, symbol K); assay type: in vivo, Italian ryegrass (Lolium multiflorum); settings: foliage application, 320 g/ha, three weeks after application
Method in brief: as §1

false cleavers [19] = assay: Test Example 5: herbicidal effect by foliage application, plastic box (Table 20, symbol Q); assay type: in vivo, false cleavers (Galium spurium); settings: foliage application, 320 g/ha, three weeks after application
Method in brief: as §1

velvetleaf [20] = assay: Test Example 5: herbicidal effect by foliage application, plastic box (Table 20, symbol M); assay type: in vivo, velvetleaf (Abutilon theophrasti); settings: foliage application, 320 g/ha, three weeks after application
Method in brief: as §1

lambsquarters [21] = assay: Test Example 4: herbicidal effect by soil treatment (Table 19, symbol O); assay type: in vivo, lambsquarters (Chenopodium album); settings: amount of applied herbicide 320 g/ha
Method in brief: as §2

redroot pigweed [22] = assay: Test Example 4: herbicidal effect by soil treatment (Table 19, symbol N); assay type: in vivo, redroot pigweed (Amaranthus retroflexus); settings: amount of applied herbicide 320 g/ha
Method in brief: as §2

wild oat [23] = assay: Test Example 4: herbicidal effect by soil treatment (Table 19, symbol I); assay type: in vivo, wild oat (Avena fatua); settings: amount of applied herbicide 320 g/ha
Method in brief: as §2

green foxtail [24] = assay: Test Example 4: herbicidal effect by soil treatment (Table 19, symbol G); assay type: in vivo, green foxtail (Setaria viridis); settings: amount of applied herbicide 320 g/ha
Method in brief: as §2

barnyard grass [25] = assay: Test Example 3: herbicidal effect by foliage application, Wagner pot (Table 18, symbol H); assay type: in vivo, barnyard grass (Echinochloa crus-galli); settings: 320 g/ha
Method in brief: as §3

blackgrass [26] = assay: Test Example 5: herbicidal effect by foliage application, plastic box (Table 20, symbol J); assay type: in vivo, blackgrass (Alopecurus myosuroides); settings: foliage application, 320 g/ha, three weeks after application
Method in brief: as §1

southern crabgrass [27] = assay: Test Example 4: herbicidal effect by soil treatment (Table 19, symbol F); assay type: in vivo, southern crabgrass (Digitaria ciliaris); settings: amount of applied herbicide 320 g/ha
Method in brief: as §2

| SMILES | H: barnyard grass, herbicidal effect grade (barnyard grass [1]) | H: barnyard grass, herbicidal effect grade (barnyard grass [2]) | R: persian speedwell, herbicidal effect grade (persian speedwell [3]) | Q: false cleavers, herbicidal effect grade (false cleavers [4]) | P: chickweed, herbicidal effect grade (chickweed [5]) | N: redroot pigweed, herbicidal effect grade (redroot pigweed [6]) | F: southern crabgrass, herbicidal effect grade (southern crabgrass [7]) | I: wild oat, herbicidal effect grade (wild oat [8]) | O: lambsquarters, herbicidal effect grade (lambsquarters [9]) | J: blackgrass, herbicidal effect grade (blackgrass [10]) | L: windgrass, herbicidal effect grade (windgrass [11]) | R: persian speedwell, herbicidal effect grade (persian speedwell [12]) | G: green foxtail, herbicidal effect grade (green foxtail [13]) | M: velvetleaf, herbicidal effect grade (velvetleaf [14]) | K: Italian ryegrass, herbicidal effect grade (Italian ryegrass [15]) | P: chickweed, herbicidal effect grade (chickweed [16]) | herbicidal effect on rice flat sedge (E) (rice flat sedge) | L: windgrass, herbicidal effect grade (windgrass [17]) | herbicidal effect on Chinese sprangletop (D) (Chinese sprangletop) | K: Italian ryegrass, herbicidal effect grade (Italian ryegrass [18]) | further results |
| --- | --- | --- | --- | --- | --- | --- | --- | --- | --- | --- | --- | --- | --- | --- | --- | --- | --- | --- | --- | --- | --- |
| COc1ccc(-c2sc3cc(OC)ccc3c2-c2c(O)c(C)nn(C)c2=O)cc1 [3-068] | 0 (Herbicidal rate of 5% or less (almost no effect)) | 0 (Herbicidal rate of 5% or less (almost no effect)) | 5 (Herbicidal rate of 90% or more (almost completely withered)) | 4 (Herbicidal rate of 70% or more and less than 90%) | 2 (Herbicidal rate of 20% or more and less than 40%) | 3 (Herbicidal rate of 40% or more and less than 70%) | 0 (Herbicidal rate of 5% or less (almost no effect)) | 0 (Herbicidal rate of 5% or less (almost no effect)) | 5 (Herbicidal rate of 90% or more (almost completely withered)) | 0 (Herbicidal rate of 5% or less (almost no effect)) | 0 (Herbicidal rate of 5% or less (almost no effect)) | 5 (Herbicidal rate of 90% or more (almost completely withered)) | 0 (Herbicidal rate of 5% or less (almost no effect)) | 0 (Herbicidal rate of 5% or less (almost no effect)) | 2 (Herbicidal rate of 20% or more and less than 40%) | 5 (Herbicidal rate of 90% or more (almost completely withered)) | 3 (Herbicidal rate of 40% or more and less than 70%) | 0 (Herbicidal rate of 5% or less (almost no effect)) | 2 (Herbicidal rate of 20% or more and less than 40%) | 3 (Herbicidal rate of 40% or more and less than 70%) | Q: false cleavers, herbicidal effect grade (false cleavers [19]): 5 (Herbicidal rate of 90% or more (almost completely withered)); M: velvetleaf, herbicidal effect grade (velvetleaf [20]): 4 (Herbicidal rate of 70% or more and less than 90%); O: lambsquarters, herbicidal effect grade (lambsquarters [21]): 4 (Herbicidal rate of 70% or more and less than 90%); N: redroot pigweed, herbicidal effect grade (redroot pigweed [22]): 4 (Herbicidal rate of 70% or more and less than 90%); I: wild oat, herbicidal effect grade (wild oat [23]): 0 (Herbicidal rate of 5% or less (almost no effect)); G: green foxtail, herbicidal effect grade (green foxtail [24]): 0 (Herbicidal rate of 5% or less (almost no effect)); herbicidal effect on barnyard grass (H) (barnyard grass [25]): 3 (Herbicidal rate of 40% or more and less than 70%); J: blackgrass, herbicidal effect grade (blackgrass [26]): 1 (Herbicidal rate of 5% or more and less than 20%); F: southern crabgrass, herbicidal effect grade (southern crabgrass [27]): 0 (Herbicidal rate of 5% or less (almost no effect)) |
| COc1ccc2c(-c3c(O)c(C)nn(C)c3=O)c(-c3ccc(OC)c(OC)c3)sc2c1 [3-080] | 0 (Herbicidal rate of 5% or less (almost no effect)) | 0 (Herbicidal rate of 5% or less (almost no effect)) | 2 (Herbicidal rate of 20% or more and less than 40%) | 0 (Herbicidal rate of 5% or less (almost no effect)) | 0 (Herbicidal rate of 5% or less (almost no effect)) | 0 (Herbicidal rate of 5% or less (almost no effect)) | 0 (Herbicidal rate of 5% or less (almost no effect)) | 0 (Herbicidal rate of 5% or less (almost no effect)) | 1 (Herbicidal rate of 5% or more and less than 20%) | 0 (Herbicidal rate of 5% or less (almost no effect)) | 0 (Herbicidal rate of 5% or less (almost no effect)) | 5 (Herbicidal rate of 90% or more (almost completely withered)) | 0 (Herbicidal rate of 5% or less (almost no effect)) | 0 (Herbicidal rate of 5% or less (almost no effect)) | 0 (Herbicidal rate of 5% or less (almost no effect)) | 5 (Herbicidal rate of 90% or more (almost completely withered)) | 4 (Herbicidal rate of 70% or more and less than 90%) | 0 (Herbicidal rate of 5% or less (almost no effect)) | 0 (Herbicidal rate of 5% or less (almost no effect)) | 4 (Herbicidal rate of 70% or more and less than 90%) | Q: false cleavers, herbicidal effect grade (false cleavers [19]): 0 (Herbicidal rate of 5% or less (almost no effect)); M: velvetleaf, herbicidal effect grade (velvetleaf [20]): 1 (Herbicidal rate of 5% or more and less than 20%); O: lambsquarters, herbicidal effect grade (lambsquarters [21]): 0 (Herbicidal rate of 5% or less (almost no effect)); N: redroot pigweed, herbicidal effect grade (redroot pigweed [22]): 0 (Herbicidal rate of 5% or less (almost no effect)); I: wild oat, herbicidal effect grade (wild oat [23]): 0 (Herbicidal rate of 5% or less (almost no effect)); G: green foxtail, herbicidal effect grade (green foxtail [24]): 0 (Herbicidal rate of 5% or less (almost no effect)); herbicidal effect on barnyard grass (H) (barnyard grass [25]): 1 (Herbicidal rate of 5% or more and less than 20%); J: blackgrass, herbicidal effect grade (blackgrass [26]): 2 (Herbicidal rate of 20% or more and less than 40%); F: southern crabgrass, herbicidal effect grade (southern crabgrass [27]): 0 (Herbicidal rate of 5% or less (almost no effect)) |
